Experimental findings from paper PMC6934184, “Selective DNA-PKcs inhibition extends the therapeutic index of localized radiotherapy and chemotherapy” (The Journal of Clinical Investigation, 2019) are described below.

This assay concerns the target T1, HCK (Homo sapiens, UniProt P08631).
T1 construct: purchased Thermo Fisher Scientific (Life Technologies) SelectScreen
Nature of the assay: SelectScreen Z'LYTE. It counts as biochemical. Put shortly: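 SelectScreen broad panel; activity (Z'LYTE, Adapta) plus binding formats. ATP: Km app for CSF1R Z'LYTE; 10 for CAMK1 Adapta. Readout = % per kinase.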

T1 sequence (P08631 whole entry): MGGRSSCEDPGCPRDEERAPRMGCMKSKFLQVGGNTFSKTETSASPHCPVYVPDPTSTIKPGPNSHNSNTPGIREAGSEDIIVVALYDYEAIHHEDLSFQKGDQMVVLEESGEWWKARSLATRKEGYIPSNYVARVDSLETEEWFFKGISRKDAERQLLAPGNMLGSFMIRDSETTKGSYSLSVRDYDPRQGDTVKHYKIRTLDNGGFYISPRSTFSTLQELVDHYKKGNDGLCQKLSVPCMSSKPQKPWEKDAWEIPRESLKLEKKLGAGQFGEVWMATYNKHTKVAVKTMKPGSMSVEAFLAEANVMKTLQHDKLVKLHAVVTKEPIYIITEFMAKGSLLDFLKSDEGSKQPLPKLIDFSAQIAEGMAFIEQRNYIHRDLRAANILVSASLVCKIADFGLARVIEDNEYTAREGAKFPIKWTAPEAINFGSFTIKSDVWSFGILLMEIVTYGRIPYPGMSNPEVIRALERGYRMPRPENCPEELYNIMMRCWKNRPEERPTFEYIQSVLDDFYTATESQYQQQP

The term inhibition denotes the relative decrease from the control value, in per cent. Low values mean a response near the control, high ones a response far below the control. For `CN(C(=O)CN1CCOCC1)c1ccc2sc3c(-c4cccc5c(=O)cc(N6CC7CCC(C6)O7)oc45)cccc3c2c1` [NU5455], the inhibition at 1 µM was found to be 18%.
